Measured values: patent publication US20190008843A1, “PHARMACEUTICAL COMPOSITIONS FOR ON DEMAND ANTICOAGULANT THERAPY” (Kenox Pharmaceuticals Inc, priority 2016, published 2019)

What was measured:
[1] = pH 4.5-7.4; cited from earlier work
[2] = Aqueous solubility of Dabigatran etexilate in presence of solubility enhancers; assay type: physicochemical
Source text: However, based on data presented in Table I, TPGS (tocopherol polyethylene glycol succinate) would be expected to be a poor solubilizer by one skilled in the art. […] The present invention provides pharmaceutical compositions and method of administration of Dabigatran etexilate to overcome the clinical limitations posed by gastrointestinal delivery, specifically by increasing the solubility of Dabigatran etexilate, while maintaining it in its most bioavailable form to ascertain an effective transport through the oral mucous membranes so it effectively can exert its anticoagulant activity. We have observed that the use of pharmaceutical solubilizers such as d-alpha Tocopherol polyethylene glycol succinate (TPGS) and Polysorbate 80 improved the solubility up to 5-10 mg/mL. Without being bound to any specific mechanism, the enhanced solubility and dissolution of Dabigatran etexilate, when co-formulated with TPGS may likely be due to ability of TPGS to inhibit precipitation and maintain supersaturation of dabigatran free base in the formulation microenvironment during dissolution. Pharmaceutical co-solvents such as Polyethylene Glycol 400 (PEG 400) and Glycerol improved the solubility compared to water alone, but the solubility was still<0.1 mg/mL.

[3] = Percent of Dabigatran etexilate remaining after exposure to aqueous solutions; assay type: physicochemical; settings: 15 minutes

Substance: Dabigatran etexilate
- Solubility under physiological conditions relevant to oral absorption [1]: virtually insoluble
- Solubility (mg/ml) 25° C. ([2]; 2% w/v Polysorbate 80 in 0.01M histidine buffer, pH 7.4, 25° C.): <0.1 mg/mL
- Solubility (mg/ml) 25° C. ([2]; 5% w/v Polysorbate 80 in 0.01M histidine buffer, pH 7.5, 25° C.): <0.1 mg/mL
- Solubility (mg/ml) 25° C. ([2]; 5% w/v TPGS in 0.01M histidine buffer, pH 7.6, 25° C.): 0.37 mg/mL
- Solubility (mg/ml) 25° C. ([2]; 10% w/v Glycerol in 0.01M histidine buffer, pH 7.6, 25° C.): <0.1 mg/mL
- Solubility (mg/ml) 25° C. ([2]; 10% w/v PEG 400 in 0.01M histidine buffer, pH 7.5, 25° C.): <0.1 mg/mL
- Solubility with pharmaceutical co-solvents ([2]; Polyethylene Glycol 400 (PEG 400) and Glycerol): < 100 µg/mL
- Solubility (mg/ml) 25° C. ([2]; Water, pH 6.5, 25° C.): <0.001 mg/mL
- % of Initial (23° C.) ([3]; Water): 21.6%
- % of Initial (40° C.) ([3]; Water): 21.0%
- % of Initial (23° C.) ([3]; pH 2 acetate buffer (0.1M)): 0.2%
- % of Initial (40° C.) ([3]; pH 2 acetate buffer (0.1M)): 0.2%
- % of Initial (23° C.) ([3]; pH 3 acetate buffer (0.1M)): 22.4%
- % of Initial (40° C.) ([3]; pH 3 acetate buffer (0.1M)): 22.2%
- % of Initial (23° C.) ([3]; pH 4 phosphate buffer (0.1M)): 59.5%
- % of Initial (40° C.) ([3]; pH 4 phosphate buffer (0.1M)): 55.7%
